Data published in PubChem BioAssay (NCI).
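Five compound concentrations were applied to cells in 96-well plates for 48 hours; endpoints were derived by simple linear interpolation of the resulting dose-response curve. TGI: concentration producing complete growth inhibition.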

What was measured:
Experiment in all cases: inhibition of tumour cell growth, NCI panel, 48 h
[1] = system: HCC-2998 colon
[2] = system: CAKI-1 renal
[3] = system: KM12 colon
[4] = system: DU-145 prostate
[5] = system: SK-MEL-5 melanoma
[6] = system: NCI-H522 lung
[7] = system: U251 CNS
[8] = system: MDA-MB-231 breast
[9] = system: OVCAR-8 ovarian
[10] = system: NCI-H460 lung
[11] = system: NCI-H226 lung
[12] = system: MALME-3M melanoma
[13] = system: SK-OV-3 ovarian
[14] = system: PC-3 prostate
[15] = system: UACC-62 melanoma
[16] = system: SF-268 CNS
[17] = system: HCT-116 colon
[18] = system: MOLT-4 leukemia
[19] = system: SF-539 CNS
[20] = system: ACHN renal
[21] = system: RXF 393 renal
[22] = system: NCI/ADR-RES ovarian
[23] = system: T-47D breast
[24] = system: HCT-15 colon
[25] = system: SK-MEL-28 melanoma
[26] = system: SR leukemia
[27] = system: SNB-19 CNS
[28] = system: MDA-MB-435
[29] = system: SN12C renal
[30] = system: COLO 205 colon
[31] = system: UO-31 renal
[32] = system: HS 578T breast
[33] = system: OVCAR-4 ovarian
[34] = system: OVCAR-3 ovarian
[35] = system: TK-10 renal
[36] = system: OVCAR-5 ovarian
[37] = system: M14 melanoma
[38] = system: HT29 colon
[39] = system: MDA-N
[40] = system: RPMI-8226 leukemia
[41] = system: A549 NSCLC
[42] = system: HOP-62 NSCLC
[43] = system: SW-620 colon
[44] = system: EKVX NSCLC
[45] = system: NCI-H23 lung
[46] = system: LOX IMVI melanoma
[47] = system: A498 renal
[48] = system: SK-MEL-2 melanoma
[49] = system: MCF7 breast
[50] = system: SF-295 CNS
[51] = system: CCRF-CEM leukemia
[52] = system: SNB-75 CNS
[53] = system: K-562 leukemia
[54] = system: IGROV1 ovarian
[55] = system: HL-60(TB) leukemia
[56] = system: BT-549 breast
[57] = system: UACC-257 melanoma
[58] = system: 786-0 renal

With `OCC(CO)CC1COc2ccccc2O1` (stereo unspecified) as the molecule, how does the TGI [1] read?
The TGI was greater than 10 µM.

What about the TGI [2] of the same molecule?
Its TGI is greater than 10 µM.

What about the TGI [3] of the same molecule?
Its TGI is greater than 10 µM.

And the TGI [4]?
The TGI was greater than 10 µM.

And the TGI [5]?
The TGI was greater than 10 µM.

What about the TGI [6] of the same molecule?
The TGI was greater than 10 µM.

And the TGI [7]?
Its TGI is greater than 10 µM.

What about the TGI [8] of the same molecule?
Its TGI is greater than 10 µM.

What about the TGI [9] of the same molecule?
Its TGI is greater than 10 µM.

What about the TGI [10] of the same molecule?
The TGI was greater than 10 µM.

And the TGI [11]?
The TGI was greater than 10 µM.

And the TGI [12]?
Its TGI is greater than 10 µM.

And the TGI [13]?
Its TGI is greater than 10 µM.

And the TGI [14]?
The TGI was greater than 10 µM.

And the TGI [15]?
The TGI was greater than 10 µM.

And the TGI [16]?
The TGI was greater than 10 µM.

What about the TGI [17] of the same molecule?
Its TGI is greater than 10 µM.

What about the TGI [18] of the same molecule?
Its TGI is greater than 10 µM.

What about the TGI [19] of the same molecule?
The TGI was greater than 10 µM.

And the TGI [20]?
The TGI was greater than 10 µM.

And the TGI [21]?
Its TGI is greater than 10 µM.

And the TGI [22]?
The TGI was greater than 10 µM.

What about the TGI [23] of the same molecule?
The TGI was greater than 10 µM.

What about the TGI [24] of the same molecule?
The TGI was greater than 10 µM.

What about the TGI [25] of the same molecule?
The TGI was greater than 10 µM.

And the TGI [26]?
The TGI was greater than 10 µM.

What about the TGI [27] of the same molecule?
The TGI was greater than 10 µM.

And the TGI [28]?
The TGI was greater than 10 µM.

And the TGI [29]?
Its TGI is greater than 10 µM.

What about the TGI [30] of the same molecule?
The TGI was greater than 10 µM.

And the TGI [31]?
Its TGI is greater than 10 µM.

What about the TGI [32] of the same molecule?
The TGI was greater than 10 µM.

What about the TGI [33] of the same molecule?
The TGI was greater than 10 µM.

What about the TGI [34] of the same molecule?
The TGI was greater than 10 µM.

What about the TGI [35] of the same molecule?
Its TGI is greater than 10 µM.

What about the TGI [36] of the same molecule?
Its TGI is greater than 10 µM.

And the TGI [37]?
Its TGI is greater than 10 µM.

What about the TGI [38] of the same molecule?
The TGI was greater than 10 µM.

What about the TGI [39] of the same molecule?
The TGI was greater than 10 µM.

And the TGI [40]?
The TGI was greater than 10 µM.

What about the TGI [41] of the same molecule?
Its TGI is greater than 10 µM.

And the TGI [42]?
The TGI was greater than 10 µM.

What about the TGI [43] of the same molecule?
Its TGI is greater than 10 µM.

And the TGI [44]?
Its TGI is greater than 10 µM.

What about the TGI [45] of the same molecule?
The TGI was greater than 10 µM.

What about the TGI [46] of the same molecule?
Its TGI is greater than 10 µM.

And the TGI [47]?
The TGI was greater than 10 µM.

What about the TGI [48] of the same molecule?
Its TGI is greater than 10 µM.

What about the TGI [49] of the same molecule?
The TGI was greater than 10 µM.

What about the TGI [50] of the same molecule?
The TGI was greater than 10 µM.

And the TGI [51]?
The TGI was greater than 10 µM.

And the TGI [52]?
Its TGI is greater than 10 µM.

And the TGI [53]?
The TGI was greater than 10 µM.

And the TGI [54]?
The TGI was greater than 10 µM.

What about the TGI [55] of the same molecule?
The TGI was greater than 10 µM.

`Cc1cccc(/C=N/NC(=S)NC(C)(C)C)n1` was tested. Which TGI [1] did it give?
The TGI was greater than 100 µM.

What about the TGI [2] of the same molecule?
Its TGI is greater than 100 µM.

What about the TGI [3] of the same molecule?
The TGI was greater than 100 µM.

And the TGI [4]?
The TGI was greater than 100 µM.

And the TGI [5]?
The TGI was greater than 100 µM.

And the TGI [6]?
The TGI was greater than 100 µM.

What about the TGI [7] of the same molecule?
The TGI was greater than 100 µM.

What about the TGI [8] of the same molecule?
Its TGI is greater than 100 µM.

What about the TGI [9] of the same molecule?
The TGI was greater than 100 µM.

And the TGI [56]?
The TGI was greater than 100 µM.

What about the TGI [10] of the same molecule?
The TGI was greater than 100 µM.

What about the TGI [11] of the same molecule?
The TGI was greater than 100 µM.

And the TGI [12]?
The TGI was greater than 100 µM.

And the TGI [57]?
Its TGI is greater than 100 µM.

What about the TGI [13] of the same molecule?
Its TGI is greater than 100 µM.

What about the TGI [14] of the same molecule?
The TGI was greater than 100 µM.

And the TGI [15]?
The TGI was greater than 100 µM.

And the TGI [58]?
The TGI was greater than 100 µM.

And the TGI [16]?
Its TGI is greater than 100 µM.

And the TGI [17]?
The TGI was greater than 100 µM.

What about the TGI [18] of the same molecule?
The TGI was greater than 100 µM.

And the TGI [19]?
The TGI was greater than 100 µM.

What about the TGI [20] of the same molecule?
The TGI was greater than 100 µM.

What about the TGI [22] of the same molecule?
The TGI was greater than 100 µM.

What about the TGI [23] of the same molecule?
The TGI was greater than 100 µM.

And the TGI [24]?
The TGI was greater than 100 µM.

And the TGI [25]?
Its TGI is greater than 100 µM.

What about the TGI [26] of the same molecule?
Its TGI is greater than 100 µM.

And the TGI [27]?
The TGI was greater than 100 µM.

What about the TGI [28] of the same molecule?
The TGI was greater than 100 µM.

And the TGI [29]?
The TGI was greater than 100 µM.

And the TGI [30]?
The TGI was greater than 100 µM.

What about the TGI [31] of the same molecule?
Its TGI is greater than 100 µM.

What about the TGI [32] of the same molecule?
Its TGI is greater than 100 µM.

And the TGI [33]?
The TGI was greater than 100 µM.

And the TGI [34]?
Its TGI is greater than 100 µM.

What about the TGI [35] of the same molecule?
Its TGI is greater than 100 µM.

What about the TGI [36] of the same molecule?
The TGI was greater than 100 µM.

What about the TGI [37] of the same molecule?
Its TGI is greater than 100 µM.

And the TGI [38]?
Its TGI is greater than 100 µM.

And the TGI [39]?
The TGI was greater than 100 µM.

And the TGI [40]?
Its TGI is greater than 100 µM.

And the TGI [41]?
The TGI was greater than 100 µM.

And the TGI [42]?
Its TGI is greater than 100 µM.

And the TGI [43]?
Its TGI is greater than 100 µM.

And the TGI [45]?
Its TGI is greater than 100 µM.

And the TGI [46]?
The TGI was greater than 100 µM.

What about the TGI [47] of the same molecule?
Its TGI is greater than 100 µM.

And the TGI [48]?
The TGI was greater than 100 µM.

What about the TGI [49] of the same molecule?
Its TGI is greater than 100 µM.

What about the TGI [50] of the same molecule?
The TGI was greater than 100 µM.

And the TGI [51]?
The TGI was greater than 100 µM.

And the TGI [52]?
Its TGI is greater than 100 µM.

What about the TGI [53] of the same molecule?
Its TGI is greater than 100 µM.

What about the TGI [54] of the same molecule?
The TGI was greater than 100 µM.

And the TGI [55]?
The TGI was greater than 100 µM.
